Results taken from PubChem BioAssay (NCI).
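96-well plates; 48 h exposure; 5 concentrations. Endpoints by linear interpolation between flanking doses. Not reached: highest tested concentration assigned. TGI: concentration producing complete growth inhibition.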

Tests used:
Assay in all cases: NCI anticancer screen, dose series, 48 h
NCI/ADR-RES ovarian = tested on: NCI/ADR-RES ovarian
NCI-H522 lung = tested on: NCI-H522 lung
NCI-H460 lung = tested on: NCI-H460 lung
SW-620 colon = tested on: SW-620 colon
SN12C renal = tested on: SN12C renal
MDA-MB-231 breast = tested on: MDA-MB-231 breast
MDA-N = tested on: MDA-N
TK-10 renal = tested on: TK-10 renal
HOP-62 NSCLC = tested on: HOP-62 NSCLC
SK-MEL-28 melanoma = tested on: SK-MEL-28 melanoma
OVCAR-4 ovarian = tested on: OVCAR-4 ovarian
A498 renal = tested on: A498 renal
RPMI-8226 leukemia = tested on: RPMI-8226 leukemia
OVCAR-3 ovarian = tested on: OVCAR-3 ovarian
SF-539 CNS = tested on: SF-539 CNS
HOP-92 NSCLC = tested on: HOP-92 NSCLC
SR leukemia = tested on: SR leukemia
SK-MEL-5 melanoma = tested on: SK-MEL-5 melanoma
IGROV1 ovarian = tested on: IGROV1 ovarian
K-562 leukemia = tested on: K-562 leukemia

Measured: TGI

COc1c2c(c3c(c1OC)c(=O)c1ccccc1n3C)OCO2
> 100 µM: all assays above
